# According to patent US20210393565A1, “PREPARATION FOR USE TO INCREASE THE FORMATION OF ONE OR MORE SPECIALIZED PRO-RESOLVING LIPID MEDIATORS (SPM)” (Evonik Operations GmbH, priority 2018, published 2021):
# Legend:
# Type in all cases: cell-based
# [1] = test system: Bacillus megaterium DSM 33296 cells; assay: Lipidometabolomics of culture supernatants with AvailOm dispersion formulation; conditions: Bacillus megaterium DSM 33296, AvailOm dispersion formulation; net concentration
# Description: (§1) Bacterial supernatant samples were subjected to lipid extraction using RP-phase solid phase extraction and subsequently analyzed by ultra performance liquid chromatography ESI tandem mass spectrometry (UPLC-MS/MS) according to a published procedure. Under these conditions approximately 40 different LM, including 5-hydroxy-eicosapentaenoic acid 5-HEPE, 8-HEPE, 11-HEPE, 12-HEPE, 15-HEPE, 18-HEPE, 5-hydroxy-eicosatetraenoic acid (5-HETE), 8-HETE, 11-HETE, 12-HETE, 15-HETE, 4-hydroxy-DHA (4-HDHA), 7-HDHA, 13-HDHA, 14-HDHA, 17-HDHA, lipoxin A4 (LXA4), LXB4, resolvin E1 (RvE1), RvE3, resolvin D1-5 (RvD1-5), AT-RvD1, RvD2, protectin D1 (PD1), AT-PD1, maresin 1(MaR1), MaR2, plus 4 fatty acid substrates can be detected with a lower limit of detection of 1 pg.
# (§2) 47 additional Bacillus megaterium strains sourced from various habitats were screened for their SPM production capacity to determine if this is a general phenomenon of the species Bacillus megaterium and to detect strain-specific differences in types and quantities of SPM being produced. Cells were cultured as detailed in example 4, with dispersion formulation of AvailOm® serving as omega-3 fatty acid source. Cell-free preparations of AvailOm® were treated and analyzed in parallel and served as controls for non-enzymatic, spontaneous formation of oxygenation products. It was observed that all tested strains produced measurable (>1 pg/ml) amounts of various SPM and precursors thereof, that these amounts were hugely different between the strains (up to 2.000 fold), and that concentrations of RvE3 were particularly high (up to 1.3 μg/ml) in most of the strains.
# (§3) Values given in table 7 display net concentrations of PUFA oxygenation products formed by two of the top performing strains, Bacillus megaterium DSM 33296 and Bacillus megaterium DSM 33299.
# [2] = test system: Bacillus megaterium DSM 33299 cells; assay: as above; conditions: Bacillus megaterium DSM 33299, AvailOm dispersion formulation; net concentration
# Description: as §1, §2, §3
# [3] = test system: Bacillus megaterium DSM 32963 cells; assay: Lipidometabolomics (UPLC-MS/MS) of culture supernatants with AvailOm, dissolved or as dispersion; conditions: for Extracellular concentration of PUFA oxygenation product: − bile acids, net after subtraction of cell-free control
# Description: as §1
# To investigate if Bacillus megaterium is capable of producing other PUFA oxygenation products in addition to 18-HEPE, a lipidometabolomics screening of supernatants from Bacillus megaterium strain 32963 cultured as in example 4 with AvailOm® was performed, either dissolved or in a dispersion formulation, with or without bile acids. Cell-free preparations of AvailOm® formulations were treated and analyzed in parallel and served as controls for non-enzymatic, spontaneous formation of oxygenation products. Values given in table 6 display net concentrations of products formed, i.e. after subtraction of control values. […] Concentrations of several SPM exceed by far the concentrations of SPM found in human plasma samples, which are typically in a range of ˜20-100 pg/ml. For comparison, human breast milk contains ˜6.000 pg/ml RvE1 and ˜10.000 pg/ml RvD1 [42].
Compound,Extracellular concentration of PUFA oxygenation product [1] [pg/mL],Extracellular concentration of PUFA oxygenation product [2] [pg/mL],abundance with dispersion formulation and/or bile acids compared to AvailOm without both (in words) [3],Extracellular concentration of PUFA oxygenation product ([3]; AvailOm) [pg/mL],Extracellular concentration of PUFA oxygenation product ([3]; AvailOm dispersion) [pg/mL]
5-hydroxy-eicosatetraenoic acid [5-HETE],15434,9356,lower,13,
9-hydroxyoctadecadienoic acid [9-HODE],,,lower,43,
11-hydroxy-eicosapentaenoic acid [11-HEPE],124860,63306,lower,4659,
12-hydroxy-eicosapentaenoic acid [12-HEPE],124701,79699,lower,4413,
"CCC=CCC=CCC=CCC=CC=CC(O)CCCC(=O)O (stereo not shown) [5-HEPE, 5-hydroxy-eicosapentaenoic acid]",395188,989691,lower,2253,
"CC/C=C\C/C=C\C/C=C\C/C=C\C=C\C(O)C/C=C\CCC(=O)O (stereo not shown) [7-HDHA, 7-hydroxy-DHA]",202129,243080,,,
"CCCCC/C=C\C/C=C\C=C\C(O)C/C=C\CCCC(=O)O (stereo not shown) [8-HETE, 8-hydroxy-eicosatetraenoic acid]",24207,15941,lower,,
"CC/C=C\CC(O)/C=C/C=C\C/C=C\C/C=C\CCCC(=O)O (stereo not shown) [15-HEPE, 15-hydroxy-eicosapentaenoic acid]",256797,151168,lower,7536,
"CCC(O)/C=C/C=C\C/C=C\C/C=C\C/C=C\CCCC(=O)O (stereo not shown) [18-HEPE, 18-hydroxy-eicosapentaenoic acid]",391397,217725,lower,24463,
"CC/C=C\C[C@@H](O)\C=C/C=C/C=C/[C@H](O)C/C=C\C/C=C\CCC(=O)O [AT-PD1 1, Aspirin-triggered PD1]",4558,10317,,96,247
"CC/C=C\C[C@@H](O)/C=C/C=C\C=C\C=C\[C@@H](O)[C@@H](O)C/C=C\CCC(=O)O [AT-RvD1, Aspirin-triggered RvD1]",9612,48243,,519,4932
"CCCCC/C=C\C[C@@H](O)/C=C/C=C/C=C\[C@@H](O)CCCC(=O)O [LTB4, leukotriene B4]",1769,2206,,171,
"CCCCC[C@H](O)/C=C/C=C\C=C\C=C\[C@@H](O)[C@@H](O)CCCC(=O)O [LXA4, lipoxin A4]",1157,1430,,,
"CC/C=C\C[C@H](O)/C=C/C=C\C=C\C=C\[C@@H](O)[C@@H](O)CCCC(=O)O [LXA5, lipoxin A5]",4693,128825,,7767,41263
"CCCCC[C@H](O)[C@H](O)/C=C/C=C/C=C\C=C\[C@@H](O)CCCC(=O)O [LXB4, lipoxin B4]",,,,,76301
"CC/C=C\C[C@H](O)[C@@H](O)/C=C/C=C/C=C\C=C\[C@@H](O)CCCC(=O)O [LXB5, lipoxin B5]",,,,2376,669042
"CC/C=C\C/C=C\C[C@H](O)\C=C/C=C/C=C/[C@H](O)C/C=C\CCC(=O)O [MaR1, maresin 1]",1161,1576,,114,145
"CC/C=C\C/C=C\C[C@H](O)[C@H](O)/C=C/C=C/C=C\C/C=C\CCC(=O)O [MaR2, maresin 2]",1522,1233,,120,197
"CC/C=C\C[C@H](O)\C=C/C=C/C=C/[C@H](O)C/C=C\C/C=C\CCC(=O)O [PD1 1, protectin D1]",99029,75342,,113,3841
CC/C=C\C[C@H](O)/C=C/C=C\C=C\[C@@H](O)C/C=C\C/C=C\CCC(=O)O [PDX 1],78345,138918,,109,19542
CC/C=C\C[C@H](O)[C@H](O)/C=C/C=C/C=C\C=C\[C@@H](O)C/C=C\CCC(=O)O [RvD2],265,428,,87,99
CC/C=C\C[C@H](O)/C=C/C=C\C[C@@H](O)/C=C/C=C/C=C\[C@@H](O)CCC(=O)O [RvD3],381,941,,178,8409
CC/C=C\C[C@H](O)/C=C\C=C\C/C=C/C=C/C=C/C(O)[C@@H](O)CCC(=O)O (stereo partly shown) [RvD4],1986,2523,,3681,
CC/C=C\C[C@H](O)/C=C/C=C\C/C=C\C=C\[C@@H](O)C/C=C\CCC(=O)O [RvD5],15079,34168,,68,9016
"CC[C@@H](O)/C=C/C=C\C[C@@H](O)/C=C/C=C/C=C\[C@@H](O)CCCC(=O)O [RvE1, resolvin E1]",5840,28379,,88,57826
CCCCC/C=C\C[C@@H](O)/C=C/C=C/C=C/[C@@H](O)CCCC(=O)O [t-LTB4],1780,4181,,360,667
RvD1,3626,4389,,598,1863
